Results as given in patent US20100004257A1 (University of South Floria, priority 2007, published 2010).
Like-named read-outs stand apart in the source and are kept apart here.

Legend:
H1299 cells = assay: MTT assay after 120 hours, IC50; assay type: cell-based, Human; conditions: for IC50: Homo sapiens, NCI-H1299, 120 h
Description: (§1) Cell lines and cell culture. Human lung cancer cell lines were maintained in RPMI 1640 plus 5% bovine calf serum (BCS). H3255 cells were provided by Dr. Pasi Janne (Dana-Farber, Boston, Mass.) and grown in ACL-4 medium (12). HCC827 cells were provided by Dr. Jon Kurie (M. D. Anderson, Houston, Tex.). PC9 cells were provided by Dr. Matthew Lazzara (Massachusetts Institute of Technology, Boston, Mass.). […]. Gefitinib was provided by AstraZeneca (Wilmington, Del.) and dasatinib by Bristol-Myers Squibb Oncology (Princeton, N.J.). For cell transfection experiments, 2×10^6 HEK293 cells in a 6-cm dish maintained in DMEM/10% BCS were transfected with 1 Ag plasmid DNA for 3 hours using LipofectAMINE 2000 (Invitrogen, Carlsbad, Calif.) and then allowed to go 24 hours before being treated with inhibitors.
(§2) Cytotoxicity and apoptosis assays. Cytotoxicity assays [3-(4,5-dimethylthiazol-2-yl)-2,5-diphenyltetrazolium bromide] were done according to the manufacturer's recommendations (Roche, Indianapolis, Ind.). […] Data presented represent three separate experiments with eight data points per concentration per experiment. Apoptosis [PharMingen (San Diego, Calif.) Apo-BrdU kit] and cell cycle changes (propidium iodide staining and flow cytometry) were assayed as before (13). Data are expressed as mean±SD.

H157 cells = assay: MTT assay after 120 hours, IC50; assay type: cell-based, Human; conditions: for IC50: Homo sapiens, NCI-H157, 120 h
Description: as §1, §2

H1648 cells = assay: MTT assay after 120 hours, IC50; assay type: cell-based, Human; conditions: for IC50: Homo sapiens, NCI-H1648, 120 h
Description: as §1, §2

H292 cells = assay: MTT assay after 120 hours, IC50; assay type: cell-based, Human; conditions: for IC50: Homo sapiens, NCI-H292, 120 h
Description: as §1, §2

H322 cells = assay: MTT assay after 120 hours, IC50; assay type: cell-based, Human; conditions: for IC50: Homo sapiens, NCI-H322, 120 h
Description: as §1, §2

H358 cells [1] = assay: MTT assay after 120 hours, IC50; assay type: cell-based, Human; conditions: for IC50: Homo sapiens, NCI-H358, 120 h
Description: as §1, §2

H2122 cells = assay: MTT assay after 120 hours, IC50; assay type: cell-based; conditions: Homo sapiens, NCI-H2122, 120 h
Description: as §1, §2

H226 cells = assay: MTT assay after 120 hours, IC50; assay type: cell-based; conditions: Homo sapiens, NCI-H226, 120 h
Description: as §1, §2

H23 cells = assay: MTT assay after 120 hours, IC50; assay type: cell-based; conditions: Homo sapiens, NCI-H23, 120 h
Description: as §1, §2

H441 cells [2] = assay: MTT assay after 120 hours, IC50; assay type: cell-based; conditions: Homo sapiens, NCI-H441, 120 h
Description: as §1, §2

H460 cells = assay: MTT assay after 120 hours, IC50; assay type: cell-based; conditions: Homo sapiens, NCI-H460, 120 h
Description: as §1, §2

H1650 cells = assay: Cell viability, dasatinib compared with gefitinib, 72 hours; assay type: cell-based, Human; conditions: H1650 grown in 5% BCS, FIG. 6
Method: FIG. 6. presents a series of four graphs, with each graph representative of a different cell line as indicated at the top of the graph.
Cytotoxicity and apoptosis assays. Cytotoxicity assays [3-(4,5-dimethylthiazol-2-yl)-2,5-diphenyltetrazolium bromide] were done according to the manufacturer's recommendations (Roche, Indianapolis, Ind.). Cells (5×10^3) in medium with 5% BCS were placed into single wells in a 96-well plate and exposed to indicated agents, and viability was assessed after 72 hours. Data presented represent three separate experiments with eight data points per concentration per experiment. Apoptosis [PharMingen (San Diego, Calif.) Apo-BrdU kit] and cell cycle changes (propidium iodide staining and flow cytometry) were assayed as before (13). Data are expressed as mean±SD.

[3] = system: pAkt, cleaved PARP in PC9 cells; assay: Western analysis of pAkt, pSTAT3 and cleaved PARP; assay type: cell-based, Human; conditions: 24 hours; for PARP cleavage: gefitinib at 50 nmol/L, dasatinib at increasing concentrations
[4] = system: pAkt, pSTAT3, cleaved PARP in H3255 cells; assay: Western analysis of pAkt, pSTAT3 and cleaved PARP; assay type: cell-based, Human; conditions: increasing concentrations, 24 hours
[5] = system: pAkt, pSTAT3, cleaved PARP in H1650 cells; assay: Western analysis of pAkt, pSTAT3 and cleaved PARP; assay type: cell-based, Human; conditions: 24 hours; for pSTAT3: H1650, any growth conditions
[6] = system: pAkt, pSTAT3, cleaved PARP in H1975 cells; assay: Western analysis of pAkt, pSTAT3 and cleaved PARP; assay type: cell-based, Human; conditions: 24 hours
[7] = system: pTyr416 Src (pSrc) family in PC9 cells; assay: Western analysis of Src phosphorylation status; assay type: cell-based, Human; conditions: 24 hours
[8] = system: pTyr416 Src (pSrc) family in H1650 cells; assay: Western analysis of Src phosphorylation status; assay type: cell-based, Human
[9] = system: pTyr416 Src (pSrc) family in H1975 cells; assay: Western analysis of Src phosphorylation status; assay type: cell-based, Human; conditions: 24 hours, dasatinib at 50 nmol/L
[10] = system: pFAK, pSTAT3, pAkt, pERK in A549 cells; assay: Western analysis of pFAK, pSTAT3, pAkt, pERK; assay type: cell-based, Human; conditions: 500 nmol/L, 3 hours
A549 cells [11] = assay: Cell cycle profile and cyclin D/p27 Western analysis; assay type: cell-based, Human; conditions: 24 hours, gefitinib 1 μmol/L, dasatinib 500 nmol/L; for cell cycle profile: FIG. 12; for cyclin D3 and p27 proteins: FIG. 13
H441 cells [12] = assay: Combination effect in cell viability assays, median dose effect method; assay type: cell-based, Human; conditions: dose range used
Method: Combination effects were evaluated by median dose effect method.

H358 cells [13] = conditions: 24 hours, gefitinib 1 μmol/L, dasatinib 500 nmol/L, or the combination
[14] = dosing for CML; ODAC briefing document; cited from earlier work
[15] = system: imatinib-resistant BCR-ABL mutants; conditions: number of mutants / mutants tested; cited from earlier work
A549 cells [16] = assay: MTT assay after 120 hours, IC50; assay type: cell-based; conditions: Homo sapiens, A549, 120 h, read-out: EGFR TKI IC50 (Nm)
Description: Cell lines and cell culture. […] Gefitinib was provided by AstraZeneca (Wilmington, Del.) and dasatinib by Bristol-Myers Squibb Oncology (Princeton, N.J.).
Cytotoxicity and apoptosis assays. Cytotoxicity assays [3-(4,5-dimethylthiazol-2-yl)-2,5-diphenyltetrazolium bromide] were done according to the manufacturer's recommendations (Roche, Indianapolis, Ind.). Cells (5×10^3) in medium with 5% BCS were placed into single wells in a 96-well plate and exposed to indicated agents, and viability was assessed after 72 hours. Data presented represent three separate experiments with eight data points per concentration per experiment. […] Data are expressed as mean±SD.

[17] = system: lung cancer cells with EGFR mutation that are resistant to EGFR TKI; assay: Apoptosis and cell cycle in cells with acquired resistance to erlotinib; assay type: cell-based, Human; conditions: EGFR mutant cells resistant to EGFR TKI
[18] = H1650 grown in 5% BCS, dasatinib at 50 nmol/L
[19] = H1650 in low serum with exogenous EGF, 50 nmol/L

## Cc1nc(Nc2ncc(C(=O)Nc3c(C)cccc3Cl)s2)cc(N2CCN(CCO)CC2)n1 [dasatinib, N-(2-chloro-6-methylphenyl)-2-[[6-[4-[(2-hydroxyethyl)-1-pipperazinyl]-2-methyl-4-pyrimidinyl]amino]-5-thiazolecarboxamide, monohydrate]
H1299 cells; H1299, Large Cell, EGFR WT, MTT 120 hours
  SRC Sensitivity: S (SRC TKI Sensitivity Definition: IC50 less than 100 nM)
H1299 cells; read-out: Dasatinib IC50 (Nm)
  IC50: 31.6 nM
H157 cells; H157, Squamous, EGFR WT, MTT 120 hours
  SRC Sensitivity: S (SRC TKI Sensitivity Definition: IC50 less than 100 nM)
H157 cells; read-out: Dasatinib IC50 (Nm)
  IC50: 48.9 nM
H1648 cells; H1648, Adeno, EGFR WT, MTT 120 hours
  SRC Sensitivity: S (SRC TKI Sensitivity Definition: IC50 less than 100 nM)
H1648 cells; read-out: Dasatinib IC50 (Nm)
  IC50: 20.9 nM
H292 cells; H292, Squamous, EGFR WT, MTT 120 hours
  SRC Sensitivity: S (SRC TKI Sensitivity Definition: IC50 less than 100 nM)
H292 cells; read-out: Dasatinib IC50 (Nm)
  IC50: 28.4 nM
H322 cells; H322, BAC, EGFR WT, MTT 120 hours
  SRC Sensitivity: S (SRC TKI Sensitivity Definition: IC50 less than 100 nM)
H322 cells; read-out: Dasatinib IC50 (Nm)
  IC50: 11.6 nM
H358 cells [1]; H358, BAC, EGFR WT, MTT 120 hours
  SRC Sensitivity: S (SRC TKI Sensitivity Definition: IC50 less than 100 nM)
H358 cells [1]; read-out: Dasatinib IC50 (Nm)
  IC50: 27.4 nM
H2122 cells; read-out: Dasatinib IC50 (Nm)
  IC50: 486 nM
H226 cells; read-out: Dasatinib IC50 (Nm)
  IC50: 709 nM
H23 cells; read-out: Dasatinib IC50 (Nm)
  IC50: > 2000 nM
H441 cells [2]; read-out: Dasatinib IC50 (Nm)
  IC50: > 2000 nM
H460 cells; read-out: Dasatinib IC50 (Nm)
  IC50: > 2000 nM
H1650 cells
  cell viability, dasatinib versus gefitinib: inhibited cell viability more than gefitinib
[3]
  PARP cleavage: associated changes in PARP cleavage
[3]; increasing concentrations
  pAkt: dose-dependent inhibition of pAkt
[4]
  PARP cleavage: increase in PARP cleavage
  pAkt and pSTAT3: concentration-dependent decrease of both pAkt and pSTAT3
[5]
  pSTAT3: No effect
[5]; H1650 grown in 5% BCS
  PARP cleavage: induction of PARP cleavage
[5]; [18]
  pAkt: inhibits pAkt
[5]; [19]
  pAkt: inhibit pAkt
[5]; H1650 in low serum with exogenous EGF
  degree of PARP cleavage, dasatinib versus gefitinib: degree of PARP cleavage is higher
[6]
  PARP cleavage: no PARP cleavage
  pAkt or pSTAT3: neither gefitinib nor dasatinib affects
[7]; 50 nmol/L
  pSrc: inhibits pSrc
[8]; H1650 cells, 50 nmol/L, monohydrate
  autophosphorylation of Tyr416 on Src family members (pSrc): completely inhibits pSrc
[9]
  pSrc: completely inhibits the low levels of pSrc
[10]
  pFAK: reduction in pFAK
  pSTAT3, pAkt, or pERK: no significant reductions
A549 cells [11]
  cell cycle profile: cell cycle arrest characterized by increased G1 fraction and reduced S-phase fraction
  cyclin D3 and p27 proteins: decline in cyclin D3 and an increase in p27
H441 cells [12]
  effect on cell viability: no effect
H358 cells [13]
  G1 cell cycle arrest: G1 cell cycle arrest to the same extent
  cyclins D1 and D3 and p27 protein levels: reduced cyclins D1 and D3 and increased p27 protein levels
[14]
  Cmax: 60 to 120 nM

## Cc1cn(-c2cc(NC(=O)c3ccc(C)c(Nc4nccc(-c5cccnc5)n4)c3)cc(C(F)(F)F)c2)cn1 [AMN107]
[15]
  imatinib-resistant BCR-ABL mutants against which significantly active: 32/33

## C#Cc1cccc(Nc2ncnc3cc(OCCOC)c(OCCOC)cc23)c1 [erlotinib]
A549 cells [16]
  IC50: > 2000 nM
H1299 cells; read-out: EGFR TKI IC50 (Nm)
  IC50: > 2000 nM
H157 cells; read-out: EGFR TKI IC50 (Nm)
  IC50: > 2000 nM
H1648 cells; read-out: EGFR TKI IC50 (Nm)
  IC50: 75.8 nM
H1648 cells; erlotinib, H1648, Adeno, EGFR WT, MTT 120 hours
  EGFR TKI Sensitivity: S (EGFR TKI Sensitivity Definition: Reported IC50 < or = 1 μM)
H292 cells; read-out: EGFR TKI IC50 (Nm)
  IC50: 63.4 nM
H292 cells; erlotinib, H292, Squamous, EGFR WT, MTT 120 hours
  EGFR TKI Sensitivity: S (EGFR TKI Sensitivity Definition: Reported IC50 < or = 1 μM)
H322 cells; read-out: EGFR TKI IC50 (Nm)
  IC50: 135 nM
H322 cells; erlotinib, H322, BAC, EGFR WT, MTT 120 hours
  EGFR TKI Sensitivity: S (EGFR TKI Sensitivity Definition: Reported IC50 < or = 1 μM)
H358 cells [1]; read-out: EGFR TKI IC50 (Nm)
  IC50: 199 nM
H358 cells [1]; erlotinib, H358, BAC, EGFR WT, MTT 120 hours
  EGFR TKI Sensitivity: S (EGFR TKI Sensitivity Definition: Reported IC50 < or = 1 μM)
H2122 cells; read-out: EGFR TKI IC50 (Nm)
  IC50: 748 nM
H226 cells; read-out: EGFR TKI IC50 (Nm)
  IC50: > 2000 nM
H23 cells; read-out: EGFR TKI IC50 (Nm)
  IC50: > 2000 nM
H441 cells [2]; read-out: EGFR TKI IC50 (Nm)
  IC50: > 2000 nM
H460 cells; read-out: EGFR TKI IC50 (Nm)
  IC50: > 2000 nM
H441 cells [12]
  effect on cell viability: no effect
[17]
  cell cycle: no observable effect on cell cycle

## COc1cc2ncnc(Nc3ccc(F)c(Cl)c3)c2cc1OCCCN1CCOCC1 [gefitinib]
[3]; 50 nmol/L
  pAkt: completely inhibits pAkt
[3]
  PARP cleavage: induces PARP cleavage
[5]
  pSTAT3: No effect
[5]; H1650 grown in 5% BCS
  PARP cleavage: degree of PARP cleavage is less
[5]; [18]
  pAkt: minimal effect on pAkt
[5]; [19]
  pAkt: inhibit pAkt
[6]
  PARP cleavage: no PARP cleavage
  pAkt or pSTAT3: neither gefitinib nor dasatinib affects
[7]; 250 nmol/L
  pSrc: decrease in pSrc
[7]; 1 μmol/L
  pSrc: incomplete
[8]; H1650, increasing concentrations, 24 hours
  pSrc: incomplete
[9]
  pSrc: minimal changes
A549 cells [11]
  cell cycle profile: no effect
  cyclin D3 and p27 proteins: no changes
H358 cells [13]
  G1 cell cycle arrest: G1 cell cycle arrest to the same extent
  cyclins D1 and D3 and p27 protein levels: reduced cyclins D1 and D3 and increased p27 protein levels
